From US8389011B2, “Pharmaceutical compositions of cholesteryl ester transfer protein inhibitors” (Bend Research, Inc., priority 2000, dated 2013)

Assay: In vitro dissolution test, microcentrifuge method, in phosphate buffered saline (PBS) pH 6.5
Type: physicochemical
Protocol: The compositions comprising the CETP inhibitor and concentration-enhancing polymer provide enhanced concentration of the dissolved CETP inhibitor in in vitro dissolution tests. […] An appropriate PBS solution is an aqueous solution comprising 20 mM sodium phosphate (Na2HPO4), 47 mM potassium phosphate (KH2PO4), 87 mM NaCl, and 0.2 mM KCl, adjusted to pH 6.5 with NaOH. An appropriate MFD solution is the same PBS solution wherein additionally is present 7.3 mM sodium taurocholic acid and 1.4 mM of 1-palmitoyl-2-oleyl-sn-glycero-3-phosphocholine. In particular, a composition of the present invention can be dissolution-tested by adding it to MFD or PBS solution and agitating to promote dissolution.
Indeed, for some extremely insoluble CETP inhibitors, in order to identify the MDC achieved it may be necessary to use an amount of test composition such that if all of the CETP inhibitor dissolved, the CETP inhibitor concentration would be 10,000-fold or even more, that of the equilibrium concentration of the CETP inhibitor.
The MDC is taken to be the maximum value of dissolved CETP inhibitor measured over the duration of the test.
Filtration can be conducted using a 13 mm, 0.45 μm polyvinylidine difluoride syringe filter sold by Scientific Resources under the trademark TITAN®. Centrifugation is typically carried out in a polypropylene microcentrifuge tube by centrifuging at 13,000 G for 60 seconds. Other similar filtration or centrifugation methods can be employed and useful results obtained.
The spray-dried dispersions of Examples 6 and 7 were evaluated in an in vitro dissolution test using a microcentrifuge method. In this test, the spray-dried dispersion was added to a microcentrifuge tube for a Drug 2 dose of about 1000 μg/mL (7.2 mg for Example 6, 18 mg for Example 7). The tube was placed in a 37° C. sonicating bath, and 1.8 mL phosphate buffered saline (PBS) at pH 6.5 and 290 mOsm/kg was added. The samples were quickly mixed using a vortex mixer for about 60 seconds. The samples were centrifuged at 13,000 G at 37° C. for 1 minute. The resulting supernatant solution was then sampled and diluted 1:6 (by volume) with methanol and then analyzed by high-performance liquid chromatography (HPLC). The contents of the tubes were mixed on the vortex mixer and allowed to stand undisturbed at 37° C. until the next sample was taken. Samples were collected at 4, 10, 20, 40, 90, and 1200 minutes.
For Control 2, an in vitro dissolution test was performed using the procedures described above except that 1.8 mg of crystalline Drug 2 was used.
In this method, 7.2 mg of each spray-dried dispersion was added to a 2-mL microcentrifuge tube. The tube was placed in a 37° C. sonicating bath, and 1.8 mL of a phosphate-buffered saline (PBS) solution at pH 6.5 and 290 mOsm/kg was added, resulting in a TCmax of 400 μg/mL. The samples were quickly mixed using a combination of vortex mixer and sonication for about 90 seconds. The samples were centrifuged at 13,000 G at 37° C. for 1 minute. The resulting supernatant solution was then sampled and diluted 1:6 (by volume) with methanol and then analyzed by HPLC. The tubes were then mixed on the vortex mixer and allowed to stand undisturbed at 37° C. until the next sample. Samples were collected at 4, 10, 20, 40, 90 and 1200 minutes.
For Control 5, an in vitro dissolution test was performed using the procedure described above, except that 0.72 mg of non-crystalline Drug 3 was placed in a microcentrifuge tube and mixed with 1.8 mL of PBS.
In this method, 15 mg of each SDD was added to a 2-mL microcentrifuge tube. The tube was placed in a 37° C. sonicating bath, and 1.5 mL of a phosphate-buffered saline (PBS) solution at pH 6.5 and 290 mOsm/kg) was added, resulting in a TCmax of 1000 μg/mL. The samples were quickly mixed using a combination of vortex mixer and sonication for about 90 seconds.

[1] = Table 18, Drug 10 or Drug 11, PBS pH 6.5, 37° C., 0 min, TCmax 1000 μg/mL
[2] = Table 18, Drug 10 or Drug 11, PBS pH 6.5, 37° C., 4 min, TCmax 1000 μg/mL
[3] = Table 18, Drug 10 or Drug 11, PBS pH 6.5, 37° C., 10 min, TCmax 1000 μg/mL
[4] = Table 18, Drug 10 or Drug 11, PBS pH 6.5, 37° C., 20 min, TCmax 1000 μg/mL
[5] = Table 18, Drug 10 or Drug 11, PBS pH 6.5, 37° C., 40 min, TCmax 1000 μg/mL
[6] = Table 18, Drug 10 or Drug 11, PBS pH 6.5, 37° C., 90 min, TCmax 1000 μg/mL
[7] = Table 18, Drug 10 or Drug 11, PBS pH 6.5, 37° C., 1200 min, TCmax 1000 μg/mL
[8] = Table 18, Drug 10 or Drug 11, PBS pH 6.5, 37° C., to 0 min, TCmax 1000 μg/mL
[9] = Table 18, Drug 10 or Drug 11, PBS pH 6.5, 37° C., to 4 min, TCmax 1000 μg/mL
[10] = Table 18, Drug 10 or Drug 11, PBS pH 6.5, 37° C., to 10 min, TCmax 1000 μg/mL
[11] = Table 18, Drug 10 or Drug 11, PBS pH 6.5, 37° C., to 20 min, TCmax 1000 μg/mL
[12] = Table 18, Drug 10 or Drug 11, PBS pH 6.5, 37° C., to 40 min, TCmax 1000 μg/mL
[13] = Table 18, Drug 10 or Drug 11, PBS pH 6.5, 37° C., to 90 min, TCmax 1000 μg/mL
[14] = Table 18, Drug 10 or Drug 11, PBS pH 6.5, 37° C., to 1200 min, TCmax 1000 μg/mL
[15] = Table 19: Drugs 10 and 11, PBS pH 6.5, TCmax 1000 μg/mL
[16] = PBS pH 6.5, 37° C., TCmax 1000 μg/mL, time 4 min
[17] = PBS pH 6.5, 37° C., TCmax 1000 μg/mL, time 10 min
[18] = PBS pH 6.5, 37° C., TCmax 1000 μg/mL, time 20 min
[19] = PBS pH 6.5, 37° C., TCmax 1000 μg/mL, time 40 min
[20] = PBS pH 6.5, 37° C., TCmax 1000 μg/mL, time 90 min
[21] = Table 16, Drugs 4-9, PBS pH 6.5, 37° C., TCmax 1000 μg/mL

Structure (SMILES)	Concentration [1] [µg/mL]	Concentration [2] [µg/mL]	Concentration [3] [µg/mL]	Concentration [4] [µg/mL]	Concentration [5] [µg/mL]	Concentration [6] [µg/mL]	Concentration [7] [µg/mL]	AUC [8] [min-μg/mL]	AUC [9] [min-μg/mL]	AUC [10] [min-μg/mL]	AUC [11] [min-μg/mL]	AUC [12] [min-μg/mL]	AUC [13] [min-μg/mL]	AUC [14]	AUC90 [15] [min-μg/mL]	Cmax, 90 [15] [µg/mL]	further results
CCc1cc(Oc2cccc(N(Cc3cccc(OC(F)(F)C(F)F)c3)C[C@@H](O)C(F)(F)F)c2)ccc1Cl [Control 13, (2R)-3-[[3-(4-chloro-3-ethylphenoxy)phenyl][[3-(1,1,2,2-tetrafluoroethoxy)phenyl]methyl]amino]-1,1,1-trifluoro-2-propanol]	0	1	1	1	1	1	0	0	0	0	0	0	100	600 min-μg/mL	80	1	–
CC(C)c1cc2c(c(-c3ccc(F)cc3)c1[C@@H](F)c1ccc(C(F)(F)F)cc1)[C@@H](O)CC1(CCC1)C2 [Control 12, (4′S)-5′-(4-fluorophenyl)-6′-[(S)-fluoro[4-(trifluoromethyl)phenyl]methyl]-3′,4′-dihydro-7′-(1-methylethyl)-spiro[cyclobutane-1,2′(1′H)-naphthalen]-4′-ol]	0	0	1	3	6	1	0	0	0	0	0	100	300	1,100 min-μg/mL	300	6	–
CCOC(=O)N1c2cc3c(cc2[C@@H](N(Cc2cc(C(F)(F)F)cc(C(F)(F)F)c2)C(=O)OC)C[C@H]1C)CCC3 [Control 8, [2R,4S]4-[(3,5-bis-trifluoromethyl-benzyl)-methoxycarbonyl-amino]-2-methyl-2,3,4,6,7,8-hexahydro-cyclopenta[g]quinoline-1-carboxylic acid ethyl ester]	–	–	–	–	–	–	–	–	–	–	–	–	–	–	–	–	AUC [16]: <4 min-μg/mL; Concentration [16]: <1 µg/mL; AUC [17]: <10 min-μg/mL; Concentration [17]: <1 µg/mL; AUC [18]: <20 min-μg/mL; Concentration [18]: <1 µg/mL; AUC [19]: <40 min-μg/mL; Concentration [19]: <1 µg/mL; AUC [20]: <90 min-μg/mL; Concentration [20]: <1 µg/mL; AUC90 [21]: <90 min-μg/mL; Cmax, 90 [21]: <1 µg/mL
